Calls of active or inactive are those of the source. The rule behind the calls is not given here. Some results are limits rather than exact numbers.

Results on 13 compounds are retold here after ChEMBL document CHEMBL3817819, “Development and application of ligand-based NMR screening assays for -butyrobetaine hydroxylase” (Medchemcomm, 2016).

Test [1] has as its target T1, Gamma-butyrobetaine dioxygenase (Pseudomonas sp. (strain AK-1), UniProt P80193).
T1 sequence (P80193 whole entry): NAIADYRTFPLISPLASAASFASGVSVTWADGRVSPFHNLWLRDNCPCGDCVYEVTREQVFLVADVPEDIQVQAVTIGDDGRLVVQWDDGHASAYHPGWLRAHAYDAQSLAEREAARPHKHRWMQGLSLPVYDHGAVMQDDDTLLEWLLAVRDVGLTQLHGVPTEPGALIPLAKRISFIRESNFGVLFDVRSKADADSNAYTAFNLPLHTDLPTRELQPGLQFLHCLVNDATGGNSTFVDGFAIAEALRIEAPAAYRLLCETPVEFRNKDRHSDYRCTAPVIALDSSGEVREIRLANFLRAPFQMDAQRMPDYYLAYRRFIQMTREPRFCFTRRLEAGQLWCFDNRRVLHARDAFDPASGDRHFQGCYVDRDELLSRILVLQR
Nature of the test: Inhibition of Pseudomonas sp. AK1 BBOX using GBBF as substrate after 10 mins in presence of 2OG and Fe2+ using TBS-protected fluorescein probe by fluoride release assay.

Test [2] addresses T1, Gamma-butyrobetaine dioxygenase. The test can be described thus: Inhibition of Pseudomonas sp. AK1 BBOX assessed as hydroxylation of GBB to L-carnitine measured for 60 sec in presence of 2OG and Fe2+ by 1H NMR assay.
Test [3] shares this target. The test can be described thus: Binding affinity to Pseudomonas sp. AK1 BBOX by intrinsic tryptophan fluorescence quenching assay.
Test [4] deals with T2, Gamma-butyrobetaine dioxygenase (Pseudomonas sp. (strain AK-1)) (UniProt P80193).
T2 sequence (whole entry): T1 sequence (P80193 whole entry)
Nature of the test: Inhibition of 2OG binding to Pseudomonas sp. AK1 BBOX at 25 uM in presence of Mn2+ by 1H NMR GBB/2OG dual reporter displacement assay.

In test [5] the target is T2, Gamma-butyrobetaine dioxygenase (Pseudomonas sp. (strain AK-1)). The test can be described thus: Induction of GBB binding to Pseudomonas sp. AK1 BBOX at 25 uM in presence of Mn2+ by 1H NMR GBB/2OG dual reporter displacement assay.
The target is the same in test [6]. The test can be described thus: Inhibition of GBB binding to Pseudomonas sp. AK1 BBOX at 25 uM in presence of Mn2+ by 1H NMR GBB/2OG dual reporter displacement assay.
In test [7] the target is T3, Gamma-butyrobetaine dioxygenase (Homo sapiens, UniProt O75936).
T3 sequence (O75936 whole entry): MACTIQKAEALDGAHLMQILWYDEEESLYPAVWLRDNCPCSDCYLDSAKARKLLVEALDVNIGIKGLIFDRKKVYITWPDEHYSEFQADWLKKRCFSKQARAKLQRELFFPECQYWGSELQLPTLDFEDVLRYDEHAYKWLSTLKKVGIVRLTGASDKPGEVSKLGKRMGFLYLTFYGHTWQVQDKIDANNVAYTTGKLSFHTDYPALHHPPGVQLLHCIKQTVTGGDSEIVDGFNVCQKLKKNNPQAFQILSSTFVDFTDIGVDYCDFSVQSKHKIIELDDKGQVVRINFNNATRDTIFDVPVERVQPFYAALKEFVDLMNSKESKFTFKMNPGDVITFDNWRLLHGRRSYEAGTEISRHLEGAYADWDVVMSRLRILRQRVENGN
The test can be described thus: Inhibition of human BBOX using GBBF as substrate in presence of 2OG and Fe2+ using TBS-protected fluorescein probe by fluoride release assay.

By IC50 is commonly meant the point on the concentration scale where inhibition reaches its midpoint. By Kd is commonly meant the free concentration of one partner at which half of the binding sites on the other are occupied at equilibrium, for simple one-to-one binding. `O=C(O)CNC(=O)c1nc(Cl)c2ccccc2c1O`: the IC50 in test [1] is 1.2 µM; in test [2] it was 0.21 µM. Further, in test [3], binding was put at a Kd of 22 µM. In addition, the inhibition result in test [4] is “Active”. In test [5], the result was Active. Also, the inhibition entry in test [6] was “inactive”.

On to `O=C(N[C@H](Cc1ccccc1)C(=O)O)c1nc(Cl)c2ccccc2c1O`, for which the IC50 in test [1] came to 101 µM; in test [2], 38 µM. Further, binding in test [3] was characterised by a dissociation constant (Kd) of 82 µM.

Consider `O=C(N[C@@H](Cc1ccccc1)C(=O)O)c1nc(Cl)c2ccccc2c1O`, for which the IC50 amounted to 13 µM in test [1] and 1 µM in test [2]. In addition, the affinity in test [3], expressed as Kd, was 26 µM. Further, the inhibition result in test [4] and in test [6] was “Active” throughout.

With `CC(C)C[C@@H](NC(=O)c1nc(Cl)c2ccccc2c1O)C(=O)O`, the results for the IC50 in test [1] and in test [2] were > 1000 µM and 94 µM, respectively. This compound registered a Kd in test [3] of 103 µM. For the same compound, the inhibition result in test [4] and in test [6] was “inactive” in each case.

For the compound `O=C(O)CC[C@@H](NC(=O)c1nc(Cl)c2ccccc2c1O)C(=O)O`, the IC50 in test [1] is > 1000 µM; in test [2], 86 µM. The Kd in test [3] stood at 89 µM. Further, the inhibition result in test [4] and in test [6] was “inactive” in each case.

In the case of `CC(C)C[C@H](NC(=O)c1nc(Cl)c2ccccc2c1O)C(=O)O`, the IC50 in test [1] is 125 µM; in test [2] it was 26 µM. In test [3], this compound yielded a Kd of 55 µM. In addition, the inhibition result in test [4] and in test [6] was “Active” each time.

With `O=C(O)C[C@@H](NC(=O)c1nc(Cl)c2ccccc2c1O)C(=O)O`, the IC50 in test [1] stood at 160 µM; in test [2] it was 38 µM. Further, the equilibrium dissociation constant (Kd) in test [3] was 101 µM.

As for `CC(C)[C@@H](NC(=O)c1nc(Cl)c2ccccc2c1O)C(=O)O`, the results for the IC50 in test [1] and in test [2] were > 1000 µM and 191 µM, respectively. This compound displayed a Kd in test [3] of 144 µM. For the same compound, the inhibition result in test [4] and in test [6] was “inactive” in each case.

As to `O=C(N[C@H](Cc1c[nH]c2ccccc12)C(=O)O)c1nc(Cl)c2ccccc2c1O`, the IC50 was > 1000 µM in test [1], 33 µM in test [7] and 18 µM in test [2]. In test [3], this compound yielded a Kd of 168 µM.

Take `CC(C)[C@H](NC(=O)c1nc(Cl)c2ccccc2c1O)C(=O)O`: the figures for the IC50 in test [1] and in test [2] were 130 µM and 23 µM, respectively. The compound also showed a Kd in test [3] of 55 µM. In addition, the inhibition entry in test [4] and in test [6] was “Active” throughout.

For `O=C(O)CC[C@H](NC(=O)c1nc(Cl)c2ccccc2c1O)C(=O)O`, the IC50 in test [1] worked out at 147 µM; in test [2], 22 µM. The same compound gave a Kd in test [3] of 64 µM.

Consider `O=C(N[C@@H](Cc1c[nH]c2ccccc12)C(=O)O)c1nc(Cl)c2ccccc2c1O`, for which the IC50 in test [1] came out at 26 µM; in test [7], 11 µM; in test [2] it was 0.9 µM. Besides, in test [3], the Kd came out at 29 µM. Moreover, the inhibition entry in test [4] and in test [6] was “Active” in each case.

On to `O=C(O)C[C@H](NC(=O)c1nc(Cl)c2ccccc2c1O)C(=O)O`, for which the IC50 in test [1] came to 245 µM; in test [2] it was 76 µM. The affinity in test [3], expressed as Kd, was 91 µM. Also, the inhibition result in test [4] is “Active”. The inhibition entry in test [6] was “inactive”.
